Laboratory results as given in article PMC2987581 (Tetrahedron letters, 2010).

Tests used:
trypsin = target: T1, trypsin (Bos taurus, UniProt P00760); test: serine protease inhibition screen, trypsin; assay type: biochemical; conditions: at 100 μM, the highest concentration tested
T1 sequence (P00760 24-246): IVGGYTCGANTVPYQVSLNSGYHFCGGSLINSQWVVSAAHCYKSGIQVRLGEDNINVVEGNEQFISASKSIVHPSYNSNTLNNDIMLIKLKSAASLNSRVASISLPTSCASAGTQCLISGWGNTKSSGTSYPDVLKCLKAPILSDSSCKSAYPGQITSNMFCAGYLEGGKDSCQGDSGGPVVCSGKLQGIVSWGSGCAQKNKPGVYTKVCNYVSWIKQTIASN

aspartic protease BACE1 = aspartic protease BACE1 (Homo sapiens, UniProt P56817); test: aspartic protease inhibition, BACE1; assay type: biochemical; conditions: at concentrations up to 30 μM
Sequence of aspartic protease BACE1 (P56817 46-501): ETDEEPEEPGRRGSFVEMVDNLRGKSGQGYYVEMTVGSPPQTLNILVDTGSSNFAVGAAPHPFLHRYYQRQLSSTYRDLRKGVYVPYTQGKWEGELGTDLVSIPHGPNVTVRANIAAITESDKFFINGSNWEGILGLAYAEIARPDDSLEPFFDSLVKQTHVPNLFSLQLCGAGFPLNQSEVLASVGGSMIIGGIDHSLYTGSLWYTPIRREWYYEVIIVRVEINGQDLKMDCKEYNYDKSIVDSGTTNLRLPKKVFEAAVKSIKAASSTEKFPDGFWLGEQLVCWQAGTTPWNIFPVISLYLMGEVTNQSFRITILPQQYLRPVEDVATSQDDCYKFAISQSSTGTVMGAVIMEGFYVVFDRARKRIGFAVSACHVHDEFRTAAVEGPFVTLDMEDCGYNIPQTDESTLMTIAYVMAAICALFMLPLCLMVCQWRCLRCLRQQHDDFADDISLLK

Row | SMILES | inhibition of trypsin (trypsin) | inhibition of BACE1 (aspartic protease BACE1)
1 | C/C=C1\NC(=O)[C@@H](NC(=O)[C@@H](NC(=O)[C@H](C)NC(=O)CCC)C(C)C)[C@@H](C)OC(=O)[C@H](C(C)C)NC(=O)[C@H](Cc2ccc(O)cc2)N(C)C(=O)[C@H](Cc2ccccc2)N2C(=O)[C@H](CC[C@H]2O)NC1=O [Compound 1, Bouillomide A] | no inhibition | does not inhibit
2 | C/C=C1\NC(=O)[C@@H](NC(=O)[C@@H](NC(=O)[C@H](C)NC(=O)CCC)C(C)C)[C@@H](C)OC(=O)[C@H](C(C)C)NC(=O)[C@H](Cc2ccc(O)c(Br)c2)N(C)C(=O)[C@H](Cc2ccccc2)N2C(=O)[C@H](CC[C@H]2O)NC1=O [Compound 2, Bouillomide B] | no inhibition | –
